# Reference: patent US9440982B2 (Eolas Therapeutics, Inc., priority 2012, dated 2016)
# Target: T1, CYP3A4 (Homo sapiens, UniProt P08684)
# T1 construct: pre-incubated with human liver microsomes and NADPH; from tissue; host or cells: human liver microsomes
# Assay: Cytochrome P450 inhibition assay (midazolam hydroxylation)
# Assay type: in vitro ADME
# Settings: human, human liver microsomes, probe midazolam (hydroxylation to 1′-hydroxymidazolam), 10 μM test compound, midazolam at approximately its Km
# Description: Compounds were tested for the potential to induce drug-drug interactions by inhibition of the cytochrome P450 3A4 isoform. The assay evaluated the metabolism of a specific marker substrate (CYP3A4, midazolam hydroxylation to 1′-hydroxymidazolam) in the presence or absence of 10 μM test compound. The concentration of the marker substrate was approximately its Km (Dixit et al., Biopharm. Drug Dispos. 2007, 28(5), 257-262). A specific inhibitor for the isoform was included in each run to validate the system. An appropriate positive control inhibitor was used. Mechanism-based inhibition was investigated where warranted using a classical method. To evaluate time-dependent inhibition, parallel samples may have been included where […] was pre-incubated with human liver microsomes and NADPH for 30 min prior to the addition of the P450 substrate. The percent inhibition of the pre-incubated and non-pre-incubated samples were compared as a preliminary evaluation of time-dependent inhibition.
# T1 sequence (P08684 whole entry): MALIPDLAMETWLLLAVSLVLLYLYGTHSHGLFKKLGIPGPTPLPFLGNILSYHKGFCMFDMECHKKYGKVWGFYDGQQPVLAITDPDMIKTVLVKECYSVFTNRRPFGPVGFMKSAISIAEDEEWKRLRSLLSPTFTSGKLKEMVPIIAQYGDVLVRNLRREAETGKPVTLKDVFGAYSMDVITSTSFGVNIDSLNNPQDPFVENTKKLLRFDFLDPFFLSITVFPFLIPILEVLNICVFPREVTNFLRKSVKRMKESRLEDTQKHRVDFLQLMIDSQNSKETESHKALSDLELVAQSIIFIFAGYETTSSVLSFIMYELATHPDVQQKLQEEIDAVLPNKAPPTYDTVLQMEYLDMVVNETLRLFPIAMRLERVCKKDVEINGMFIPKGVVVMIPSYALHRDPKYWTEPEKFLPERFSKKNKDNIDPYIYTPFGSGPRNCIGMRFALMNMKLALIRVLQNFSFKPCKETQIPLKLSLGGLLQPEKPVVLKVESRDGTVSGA
row,SMILES,inhibition at 10 µM
1,"Cc1ccc(NC[C@@H]2[C@H](C)CCCN2C(=O)c2cc(C)ccc2-n2nccn2)nc1 [Example A48, ((2S,3R)-3-Methyl-2-(((5-methylpyridin-2-yl)amino)methyl)piperidin-1-yl)(5-methyl-2-(2H-1,2,3-triazol-2-yl)phenyl)methanone]",74%
2,"Cc1ccc(-c2ccc(F)cc2)c(C(=O)N2CCC[C@@H](C)[C@H]2CNc2ccc(C(F)(F)F)cn2)n1 [Example A73, (3-(4-Fluorophenyl)-6-methylpyridin-2-yl)((2S,3R)-3-methyl-2-(((5-(trifluoromethyl)pyridin-2-yl)amino)methyl)piperidin-1-yl)methanone]",76%
3,"Cc1ccc(-c2cnn(C)c2)c(C(=O)N2CCC[C@@H](C)[C@H]2CNc2ccc(C(F)(F)F)cn2)n1 [Example A74, ((2S,3R)-3-Methyl-2-(((5-(trifluoromethyl)pyridin-2-yl)amino)methyl)piperidin-1-yl)(6-methyl-3-(1-methyl-H-pyrazol-4-yl)pyridin-2-yl)methanone]",74%
4,"Cc1ccc(-n2nccn2)c(C(=O)N2CCC[C@@H](C)[C@H]2CNc2cccc(C#N)n2)c1 [Example A81, 6-((((2S,3R)-3-Methyl-1-(5-methyl-2-(2H-1,2,3-triazol-2-yl)benzoyl)piperidin-2-yl)methyl)amino)picolinonitrile]",67%
5,"Cc1ccc(-c2cnn(C)c2)c(C(=O)N2CCC[C@@H](C)[C@H]2CNc2ncc(C(F)(F)F)cc2F)c1 [Example A83, ((2S,3R)-2-(((3-Fluoro-5-(trifluoromethyl)pyridin-2-yl)amino)methyl)-3-methylpiperidin-1-yl)(5-methyl-2-(1-methyl-1H-pyrazol-4-yl)phenyl)methanone]",97%

# The remaining lines, values ahead:
row,inhibition at 10 µM,SMILES
1,99%,"Cc1ccc(-c2cncs2)c(C(=O)N2CCC[C@@H](C)[C@H]2CNc2nc3cc(Cl)ccc3o2)c1 [Example A34, ((2S,3R)-2-(((5-Chlorobenzo[d]oxazol-2-yl)amino)methyl)-3-methylpiperidin-1-yl)(5-methyl-2-(thiazol-5-yl)phenyl)methanone]"
2,92%,"Cc1ccc(-c2nccc(C)n2)c(C(=O)N2CCC[C@@H](C)[C@H]2CNc2nc3cc(Cl)ccc3o2)c1 [Example A35, ((2S,3R)-2-(((5-Chlorobenzo[d]oxazol-2-yl)amino)methyl)-3-methylpiperidin-1-yl)(5-methyl-2-(4-methylpyrimidin-2-yl)phenyl)methanone]"
3,97%,"Cc1ccc(-c2ccnn2C)c(C(=O)N2CCC[C@@H](C)[C@H]2CNc2nc3cc(Cl)ccc3o2)c1 [Example A36, ((2S,3R)-2-(((5-Chlorobenzo[d]oxazol-2-yl)amino)methyl)-3-methylpiperidin-1-yl)(5-methyl-2-(1-methyl-1H-pyrazol-5-yl)phenyl)methanone]"
4,96%,"Cc1ccc(-c2ccc(C)nc2)c(C(=O)N2CCC[C@@H](C)[C@H]2CNc2nc3cc(Cl)ccc3o2)c1 [Example A38, ((2S,3R)-2-(((5-Chlorobenzo[d]oxazol-2-yl)amino)methyl)-3-methylpiperidin-1-yl)(5-methyl-2-(6-methylpyridin-3-yl)phenyl)methanone]"
5,96%,"COc1ncc(-c2ccc(C)cc2C(=O)N2CCC[C@@H](C)[C@H]2CNc2nc3cc(Cl)ccc3o2)cn1 [Example A39, ((2S,3R)-2-(((5-Chlorobenzo[d]oxazol-2-yl)amino)methyl)-3-methylpiperidin-1-yl) (2-(2-methoxypyrimidin-5-yl)-5-methylphenyl)methanone]"
6,95%,"Cc1ccc(-c2cnn(C)c2)c(C(=O)N2CCC[C@@H](C)[C@H]2CNc2cccc(C#N)n2)c1 [Example A86, 6-((((2S,3R)-3-Methyl-1-(5-methyl-2-(1-methyl-1H-pyrazol-4-yl)benzoyl)piperidin-2-yl)methyl)amino)picolinonitrile]"
